pIC50: −log10 of the molar value. Several values for one entry are separate records, joined by “and”; a condition that tells them apart may be missing. Equal entries are not always repeated.
How the values were obtained:
[1] = test system: human embryonic kidney cells (HEK293); test: Human embryonic kidney cell viability assay (MTT); assay type: cell-based; settings: for Dose-response data points (Figure 5C): replicate data points
Protocol: HEK293 cell viability assays commenced with 5000 cells per well. 10 µg/mL cycloheximide was used as a no-growth control. Metabolic capacity (indicating viability) was measured in an absorbance microplate reader after incubation with 0.45 mg/mL methylthiazolyldiphenyl-tetrazolium bromide (MTT; Sigma M2128) for 2 h followed by crystal solubilisation in SDS. […]
Human Embryonic Kidney Cell Viability Assays:
Human Embryonic Kidney Cell (HEK293) culture:
The HEK293 cell line was maintained under routine culture conditions in DMEM containing 3.7 g/L NaHCO3 supplemented with 10% FBS, 200 μM glutamine, 100 units/mL penicillin, and 100 μg/mL streptomycin at 37 °C in a humidified 5% CO2 incubator.
Cells were detached from a flask using 0.25% Trypsin with 0.2 g/L EDTA (Sigma T4049) and washed with culture media containing no phenol red. Cells were incubated with a serial dilution of each compound, or media/DMSO alone. The protein synthesis inhibitor cycloheximide (Sigma 01810) at 10 µg/mL was used as a positive control to determine background absorbance. 5,000 cells were seeded in each well. After 96 hours, 0.45 mg/mL methylthiazolyldiphenyl-tetrazolium bromide (MTT; Sigma M2128) was added and incubated for a further two hours, before mixing 1.1:1 with 10% w/v sodium dodecyl sulfate (SDS) to solubilise crystals and freezing the plate at -18 °C to stop the assay. […]

[2] = test system: asexual P. falciparum 3D7 wild-type parasites; test: P. falciparum asexual growth inhibition assay (SYBR Safe DNA replication); assay type: cell-based, Plasmodium falciparum; design: Figure 5B dose-response source data (growth, replicate values): unit not given here; settings: for Figure 5B dose-response source data (growth, replicate values): individual replicates
Protocol: P. falciparum asexual parasite assays commenced with ring-stage parasites at 1% parasitaemia and 1% haematocrit. 200 nM chloroquine (Sigma C6628) or artesunate (Sigma A3731) was used as a no-growth control. DNA replication (indicating growth) was measured at the specified time using SYBR Safe DNA Gel Stain (Invitrogen 33102) and a fluorescence microplate reader (Smilkstein et al, [2004]; Spry et al, [2013]). […]
Growth and Viability Inhibition Assays:
Plasmodium falciparum Growth Inhibition Assays:
P. falciparum parasites were maintained under routine culture conditions in red blood cells and RPMI 1640-Hepes with Glutamax, supplemented with 10 mM D-glucose, 480 μM hypoxanthine, 20 μg/mL gentamicin, 0.375% (w/v) AlbuMAXTM II (Thermo Fisher 11021029), and 2.5% v/v heat-inactivated human serum (17). Cultures were maintained at 37 °C […]
wildtype parasites except for the ring stage survival assay, as specified. Cultures were synchronised with 5% w/v D-sorbitol (18).
Growth inhibition was investigated according to methods described by Smilkstein et al. (19) with modifications by Spry et al. (20). Compounds or solvent controls (DMSO, ethanol, or ethyl acetate) were serially diluted 2-fold across flat-bottom 96-well plates. Culture media without compound was used as a negative control. 200 nM chloroquine (Sigma C6628) or artesunate (Sigma A3731) was used as a positive control to determine background fluorescence. The parasitaemia of a culture containing predominantly ring stage parasites was counted by Giemsa smear. The parasitaemia was adjusted to 1% by addition of fresh uRBCs and added to the plate at a final haematocrit of 1%, with 200 µL per well. The plates were incubated at 37 °C under humid microaerophilic conditions. After 24, 48, or 72 hours, the plates were transferred to a -18 °C freezer to stop the assay and lyse cells. Plates were thawed and lysate was mixed 1:1 with SYBR Safe DNA Gel Stain (Invitrogen 33102) (final concentration 1/10,000) diluted in lysis buffer (20 mM TRIS, 5 mM EDTA, 0.008% w/v Saponin, 0.08% w/v Triton-X 100, pH 7.5). Fluorescence was detected at 490 nm excitation/ 520 nm emission on a FLUOstar Optima fluorescence plate reader (BMG Labtech).

SMILES: C[C@]12CC[C@H](O)CC1=CC[C@@H]1[C@@H]2CC[C@]2(C)C(=O)CC[C@@H]12 [DHEA, Dehydroepiandrosterone]
- Dose-response data points (Figure 5C) ([1]; 3.125000 μM): 108.5 and 113.8 and 102.3 and 90.3 and 90.17 and 89.76
- Dose-response data points (Figure 5C) ([1]; 6.250000 μM): 115 and 79.4 and 102.8 and 86.08 and 90.81 and 85.1
- Dose-response data points (Figure 5C) ([1]; 12.500000 μM): 83.96 and 112.7 and 100.9 and 95.11 and 92.95 and 84.24 and 113.9 and 109.3 and 94.8 and 88.3 and 83.73 and 81.43
- Dose-response data points (Figure 5C) ([1]; 25.000000 μM): 74.02 and 110.4 and 109.9 and 89.17 and 79.81 and 87.49 and 124 and 119.6 and 106.3 and 78.12 and 83.41 and 71.52
- Dose-response data points (Figure 5C) ([1]; 50.000000 μM): 65.27 and 101.5 and 98.29 and 73.76 and 69.18 and 75.02 and 111.3 and 62.75 and 93.36 and 87.06 and 86.25 and 84.64
- Dose-response data points (Figure 5C) ([1]; 100.000000 μM): 28.83 and 48.06 and 53.97 and 38.87 and 26.11 and 38.89 and 29.34 and 31.58 and 34.33 and 61 and 65.6 and 64
- Dose-response data points (Figure 5C) ([1]; 200.000000 μM): -0.4301 and 3.655 and 7.381 and -0.1582 and -0.5868 and -0.7801 and -3.647 and -3.757 and -3.702 and -0.3542 and 0.648 and 0.1847
- Dose-response data points (Figure 5C) ([1]; 400.000000 μM): -1.929 and -2.654 and -2.355 and -0.05272 and -1.637 and -1.302 and -3.718 and -4.096 and -4.009 and -3.542 and -3.411 and -3.648
- pIC50 ([1]; Homo sapiens, 96 h, HEK293, read-out: IC50, human embryonic kidney cell inhibition (viability)): 4.05
- Figure 5B dose-response source data (growth, replicate values) ([2]; Concentration 1.5625 uM): 105 and 100.9 and 101.2 (2×) and 104.8 and 107.1 and 104 and 104.2 and 97.24
- Figure 5B dose-response source data (growth, replicate values) ([2]; Concentration 3.125 uM): 99.54 and 98.59 and 99.35 and 103.6 and 96.02 and 105.9 and 103.9 and 101.1 and 100.2
- Figure 5B dose-response source data (growth, replicate values) ([2]; Concentration 6.25 uM): 94.64 and 99.33 and 101.7 and 100.2 (2×) and 103.5 and 102.7 and 100.1 and 101.2
- Figure 5B dose-response source data (growth, replicate values) ([2]; Concentration 12.5 uM): 97.83 and 97.77 and 98.63 and 101.4 and 104.7 and 102.2 and 102.3 and 100.6 and 97.67
- Figure 5B dose-response source data (growth, replicate values) ([2]; Concentration 25 uM): 97.33 and 98.84 and 99.51 and 104.1 and 102.5 and 109.8 and 97.3 and 98.4 and 101.2
- Figure 5B dose-response source data (growth, replicate values) ([2]; Concentration 50 uM): 91.17 and 88.79 and 89.21 and 91.36 and 96.36 and 97.35 and 94.23 and 92.68 and 93.65
- Figure 5B dose-response source data (growth, replicate values) ([2]; Concentration 100 uM): 80.03 and 78.97 and 77.22 and 68.91 and 88.77 and 89.83 and 76.17 and 73.25 and 71.62
- Figure 5B dose-response source data (growth, replicate values) ([2]; Concentration 200 uM): 36.08 and 37.08 and 31 and 29.85 and 51.4 and 44.23 and 15.92 and 13.39 and 11.5
- Figure 5B dose-response source data (growth, replicate values) ([2]; Concentration 400 uM): 0.02245 and -0.2944 and -1.594 and 1.899 and 4.652 and 1.525 and -5.885 and -7.232 and -8.092
- pIC50 ([2]; Plasmodium falciparum, 3D7, 72 h, 72 h, read-out: IC50, P. falciparum asexual growth inhibition): 3.82

SMILES: CC(C)(C)OOCCO[C@H]1CC[C@H]2[C@@H]3CC=C4C[C@@H](O)CC[C@]4(C)[C@H]3CC[C@]12C [BC86D]
- Dose-response data points (Figure 5C) ([1]; 3.125000 μM): 115.5 and 95.86 and 88.3 and 98.59 and 112 and 99.93 and 104.6 and 105.3 and 96.8 and 121.6 and 126.6 and 132.2
- Dose-response data points (Figure 5C) ([1]; 6.250000 μM): 96.33 and 95.87 and 97.03 and 100.5 and 103.4 and 96.23 and 94.82 and 98.4 and 99.62 and 111.9 and 133.1 and 110.9
- Dose-response data points (Figure 5C) ([1]; 12.500000 μM): 82.46 and 90.77 and 77.92 and 80.03 and 95.9 and 97.58 and 94.64 and 94.52 and 89.57 and 87.62 and 85.62 and 86.13
- Dose-response data points (Figure 5C) ([1]; 25.000000 μM): 69.58 and 78.66 and 69.32 and 83.79 and 87.18 and 91.53 and 75.15 and 72.67 and 65.58 and 76.71 and 79.77 and 75.18
- Dose-response data points (Figure 5C) ([1]; 50.000000 μM): 3.07 and 5.347 and 9.422 and 2.15 and 5.359 and 78.86 and -3.535 and -3.352 and -3.7 and -3.023 and -3.058 and -2.513
- Dose-response data points (Figure 5C) ([1]; 100.000000 μM): -1.036 and -1.804 and -2.143 and -2.292 and -2.356 and -1.995 and -3.811 and -3.706 and -3.888 and -2.988 and -3.04 and -3.163
- Figure 5B dose-response source data (growth, replicate values) ([2]; Concentration 0.019532 uM): 105.3 and 96.53 and 86.36 and 94.74 and 88.38 and 91.4
- Figure 5B dose-response source data (growth, replicate values) ([2]; Concentration 0.039063 uM): 101.2 and 93.9 and 88.17 and 67.71 and 70.53 and 73.82 and 95.83 and 90.15 and 93.44
- Figure 5B dose-response source data (growth, replicate values) ([2]; Concentration 0.078125 uM): 97.22 and 94.27 and 90.34 and 67.69 and 67.82 and 69.83 and 95.38 and 88.24 and 94.29
- Figure 5B dose-response source data (growth, replicate values) ([2]; Concentration 0.15625 uM): 96.36 and 93.34 and 87.86 and 61.44 and 62.01 and 63.2 and 95.83 and 94.74 and 95.36
- Figure 5B dose-response source data (growth, replicate values) ([2]; Concentration 0.3125 uM): 73 and 78.58 and 67.15 and 39.54 and 44.2 and 46.55 and 91.73 and 92.12 and 93.7
- Figure 5B dose-response source data (growth, replicate values) ([2]; Concentration 0.625 uM): 35.28 and 38.38 and 34.74 and 19.93 and 23.01 and 29.36 and 61.25 and 65.6 and 67.6
- Figure 5B dose-response source data (growth, replicate values) ([2]; Concentration 1.25 uM): 21.76 and 22.71 and 19.11 and 8.627 and 13.04 and 18.09 and 18.17 and 19.23 and 20.29
- Figure 5B dose-response source data (growth, replicate values) ([2]; Concentration 2.5 uM): 14.75 and 15.93 and 13.24 and 1.608 and 6.601 and 8.38 and 7.495 and 10.61 and 8.324
- Figure 5B dose-response source data (growth, replicate values) ([2]; Concentration 5 uM): 10.45 and 16.02 and 6.128 and -6.852 and -3.181 and -0.1793 and 5.173 and 6.43 and 3.972
- Figure 5B dose-response source data (growth, replicate values) ([2]; Concentration 10 uM): 4.733 and -2.356 and 1.324 and -0.2487 and 0.35 and -1.359 and 1.305 and 0.4257 and 0.3494
- Figure 5B dose-response source data (growth, replicate values) ([2]; Concentration 12.5 uM): 2.181 and -0.01995 and -1.157
- Figure 5B dose-response source data (growth, replicate values) ([2]; Concentration 25 uM): 4.45 and 0.3217 and -1.979
